In patent US10751802B1, “Method of producing silver nanoparticles using red sand” (KING SAUD UNIVERSITY, priority 2019, dated 2020):

Experiments:
[1] = test system: Acinetobacter baumannii (ATCC 19606); assay: agar well diffusion assay, inhibition zone; type: cell-based; settings: standard antibiotic disc CIP (5), control
Protocol: (§1) Antibacterial activity of the exemplary silver nanoparticles, prepared as described above (except that centrifuging and drying were omitted, i.e., antimicrobial testing was performed without removing the silver nanoparticles from the red sand extract), was evaluated against pathogenic bacterial reference strains of Acinetobacter baumannii (ATCC 19606), Salmonella typhimurium (ATCC 14028), Escherichia coli (ATCC 35218), Pseudomonas aeruginosa (27853 AT), Staphylococcus aureus (25923 AT) and Proteus vulgaris (ATCC 49132) using an agar well diffusion assay. In particular, the antibacterial activity against each strain was determined by measuring the inhibition zone. Standard antibiotic discs, including Gentamycin (CN10 μg), Augmantin (AMC 30 μg), and Ciprofloxacin (CIP 5 μg), were used as controls.

[2] = test system: Escherichia coli (ATCC 35218); assay: agar well diffusion assay, inhibition zone; type: cell-based; settings: standard antibiotic disc CIP (5), control
Protocol: as §1

[3] = test system: Pseudomonas aeruginosa (27853 AT); assay: agar well diffusion assay, inhibition zone; type: cell-based; settings: standard antibiotic disc CIP (5), control
Protocol: as §1

S. typhimurium = assay: combination effect of silver nanoparticles with antibiotic discs; type: cell-based, Salmonella typhimurium; settings: antibiotic disc alone; F 100 μg, FOS 50 μg, TE 30 μg, FEP 30 μg, MXF 5 μg, LEV 5 μg; Mueller-Hinton agar, 24 hours at 37° C.
Protocol: (§2) Moreover, combination effects were determined by first adjusting the turbidity of the previously mentioned bacterial strains to 0.5 MacFarland standards (10^8 CFU/mL), and swabbing the strains on Mueller-Hinton agar. Antibiotic discs alone were used as controls, respectively. […] To study the combination effect, 30 μl of the exemplary silver nanoparticles were loaded on the antibiotics discs then placed on the swabbed medium. The plates were incubated for 24 hours at 37° C. The diameters of the inhibition zones were measured and reported in millimeters.

P. aeruginosa = assay: as above; type: cell-based, Pseudomonas aeruginosa; settings: antibiotic disc alone; F 100 μg, FOS 50 μg, TE 30 μg, FEP 30 μg, MXF 5 μg, LEV 5 μg; Mueller-Hinton agar, 24 hours at 37° C.
Protocol: as §2

S. aureus = assay: as above; type: cell-based, Staphylococcus aureus; settings: antibiotic disc alone; RD 5 μg, E 15 μg, TOB 10 μg, TGC 15 μg, MXF 5 μg, LEV 5 μg; Mueller-Hinton agar, 24 hours at 37° C.
Protocol: as §2

E. coli = assay: as above; type: cell-based, Escherichia coli; settings: antibiotic disc alone; F 100 μg, FOS 50 μg, TE 30 μg, FEP 30 μg, MXF 5 μg, LEV 5 μg; Mueller-Hinton agar, 24 hours at 37° C.
Protocol: as §2

A. baumannii = assay: as above; type: cell-based, Acinetobacter baumannii; settings: antibiotic disc alone; F 100 μg, FOS 50 μg, TE 30 μg, FEP 30 μg, MXF 5 μg, LEV 5 μg; Mueller-Hinton agar, 24 hours at 37° C.
Protocol: as §2

P. vulgaris = assay: as above; type: cell-based, Proteus vulgaris; settings: antibiotic disc alone; F 100 μg, FOS 50 μg, TE 30 μg, FEP 30 μg, MXF 5 μg, LEV 5 μg; Mueller-Hinton agar, 24 hours at 37° C.
Protocol: as §2

[4] = test system: Proteus vulgaris (ATCC 49132); assay: agar well diffusion assay, inhibition zone; type: cell-based; settings: standard antibiotic disc AMC (30), control
Protocol: as §1

[5] = test system: Salmonella typhimurium (ATCC 14028); assay: agar well diffusion assay, inhibition zone; type: cell-based; settings: standard antibiotic disc CN (10), control
Protocol: as §1

[6] = test system: Staphylococcus aureus (25923 AT); assay: agar well diffusion assay, inhibition zone; type: cell-based; settings: standard antibiotic disc CN (10), control
Protocol: as §1

| Compound | C: inhibition zone of the antibiotic alone as a control (S. typhimurium) [mm] | C: inhibition zone of the antibiotic alone as a control (P. aeruginosa) [mm] | C: inhibition zone of the antibiotic alone as a control (S. aureus) [mm] | C: inhibition zone of the antibiotic alone as a control (E. coli) [mm] | C: inhibition zone of the antibiotic alone as a control (A. baumannii) [mm] | C: inhibition zone of the antibiotic alone as a control (P. vulgaris) [mm] | also measured |
| --- | --- | --- | --- | --- | --- | --- | --- |
| O=C(O)c1cn(C2CC2)c2cc(N3CCNCC3)c(F)cc2c1=O [CIP, Ciprofloxacin] |  |  |  |  |  |  | Diameter of inhibition zone, standard antibiotic disc [1]: CIP (5) = 25 mm; Diameter of inhibition zone, standard antibiotic disc [2]: CIP (5) = 33 mm; Diameter of inhibition zone, standard antibiotic disc [3]: CIP (5) = 31 mm |
| CO/N=C(\C(=O)N[C@@H]1C(=O)N2C(C(=O)[O-])=C(C[N+]3(C)CCCC3)CS[C@H]12)c1csc(N)n1 [Cefepime] | 23.5 | 11 |  |  |  |  |  |
| CC[C@H]1OC(=O)[C@H](C)[C@@H](O[C@H]2C[C@@](C)(OC)[C@@H](O)[C@H](C)O2)[C@H](C)[C@@H](O[C@@H]2O[C@H](C)C[C@H](N(C)C)[C@H]2O)[C@](C)(O)C[C@@H](C)C(=O)[C@H](C)[C@@H](O)[C@]1(C)O [Erythromycin] |  |  | 32 |  |  |  |  |
| C[C@@H]1O[C@@H]1P(=O)(O)O [Fosfomycin] | 20.5 | 27 |  | 24 | 10 | 11 |  |
| C[C@H]1COc2c(N3CCN(C)CC3)c(F)cc3c(=O)c(C(=O)O)cn1c23 [Levofloxacin] | 30 | 27 | 27 | 35 | 23 | 33 |  |
| COc1c(N2C[C@@H]3CCCN[C@@H]3C2)c(F)cc2c(=O)c(C(=O)O)cn(C3CC3)c12 [Moxifloxacin] | 30 | 22.5 | 33 | 31 | 20 | 19. |  |
| O=C1CN(/N=C/c2ccc([N+](=O)[O-])o2)C(=O)N1 [Nitrofurantoin] | 23.5 |  |  | 21.5 | 11 | 10 |  |
| CO[C@H]1/C=C/O[C@@]2(C)Oc3c(C)c(O)c4c(O)c(c(/C=N/N5CCN(C)CC5)c(O)c4c3C2=O)NC(=O)/C(C)=C\C=C\[C@H](C)[C@H](O)[C@@H](C)[C@@H](O)[C@@H](C)[C@H](OC(C)=O)[C@@H]1C [Rifampicin] |  |  | 34.5 |  |  |  |  |
| CN(C)[C@@H]1C(O)=C(C(N)=O)C(=O)[C@@]2(O)C(O)=C3C(=O)c4c(O)cccc4[C@@](C)(O)[C@H]3C[C@@H]12 [Tetracycline] | 18 | 11.5 |  | 17 | 11.5 | 11. |  |
| CN(C)c1cc(NC(=O)CNC(C)(C)C)c(O)c2c1C[C@H]1C[C@H]3[C@H](N(C)C)C(O)=C(C(N)=O)C(=O)[C@@]3(O)C(O)=C1C2=O [Tigecycline] |  |  | 24 |  |  |  |  |
| NC[C@H]1O[C@H](O[C@H]2[C@H](O)[C@@H](O[C@H]3O[C@H](CO)[C@@H](O)[C@H](N)[C@H]3O)[C@H](N)C[C@@H]2N)[C@H](N)C[C@@H]1O [Tobramycin] |  |  | 26 |  |  |  |  |
| Augmantin [AMC] |  |  |  |  |  |  | Diameter of inhibition zone, standard antibiotic disc [4]: AMC (30) = 32 mm |
| Gentamycin [CN] |  |  |  |  |  |  | Diameter of inhibition zone, standard antibiotic disc [5]: CN (10) = 24 mm; Diameter of inhibition zone, standard antibiotic disc [6]: CN (10) = 30 mm |
